These results are taken from patent publication US20100210575A1, “STRUCTURING EFFECT OF CHOLESTEROL IN PEG-PHOSPHOLIPID MICELLES, DRUG DELIVERY OF AMPHOTERICIN B, AND COMBINATION ANTIFUNGALS” (WISCONSIN ALUMNI RESEARCH FOUNDATION, priority 2007, published 2010).

The subject of series [1] is C. albicans 98-17 and C. albicans 98-234. The series is described as follows: In vitro susceptibility, broth microdilution, both isolates. Type of series: cell-based. Conditions: Candida albicans. Here is the method: (§1) C. albicans 98-17 and C. albicans 98-234 were maintained on SDA plates. Susceptibility of yeast isolates was performed using broth microdilution in RPMI-1640 (supplemented with 0.165 M morpholinepropanesulfonic acid, buffered to pH 7.0) according to procedures recommended in NCCLS M27-A2 (25). Test drug solutions were incubated with yeast inoculum at 35° C. in 96-well plates for a 24 h period. All measurements were done in triplicate. Percent yeast growth relative to drug-free control was determined by measuring optical density (OD) at 650 nm, using the Microplate EL 312e plate reader. […] The MIC values were expressed as a mean of three determinations.
(§2) Calculation of a combination index was done in two steps. First, inhibition of fungal growth in response to varying concentrations of single-drug was fit to median-effect function:
(§3) where fa is the mean growth inhibition, relative to drug-free control, Dm is the drug concentration for a 50% growth inhibition, and m is the slope-factor describing the dose-response curve. Parameter Dm and m for each drug were estimated by non-linear regression using SigmaPlot (v. 9.0).

In another series the test system is C. albicans 98-234. The series is described as follows: In vitro susceptibility, broth microdilution (MIC, median-effect fit). Type of series: cell-based. Conditions: Candida albicans, 98234, strain 98-234. Here is the method: as §1, §2, §3
Another series relates to C. albicans 98-17. The description is as above. Type of series: cell-based. The conditions noted are these: Candida albicans, 9817, strain 98-17. Here is the method:
as §1, §2, §3

Series [2] can be described thus: AmB release from PEG-DSPE micelles using equilibrium dialysis. Type of series: physicochemical. The conditions noted are these: 25° C., 30 μg/mL AmB. Here is the method:
AmB release from PEG-DSPE micelles using equilibrium dialysis. AmB stock solutions (micelle encapsulated or dissolved in DMSO) were diluted to 30 μg/mL in HEPES buffer or in 4% BSA. These solutions were put in dialysis cassettes (MWCO 7000 g/mol, Pierce) and were placed in excess buffer (5 mM HEPES, pH 7.0). The MWCO of the dialysis membrane was chosen to allow for diffusion of AmB (molecular weight 924.1) while retaining large molecules such as bovine serum albumin (molecular weight 66 kDa) and intact micelles (molecular weight >100 kDa). Near-sink conditions for AmB were maintained by performing the release experiment in a 100-fold excess dialysis buffer. Because AmB is susceptible to degradation, the dialysis buffer was degassed overnight and 20 μg/mL propyl gallate was added as an antioxidant (15, 16). At predetermined time intervals, 100 μL samples were taken and AmB concentration in dialysis cassettes was determined using reversed-phase HPLC. […]
AmB release was fit to a first-order process of the form At/A0=a.e^−k.t by non-linear regression (SigmaPlot v.9.0). […] The half-life t1/2 for AmB release was calculated using t1/2=0.693/k.
For determination of AmB content, 15 μL samples were injected into 4.6 mm×150 mm Eclipse XDB-C8 reversed-phase column (Agilent Technologies) and AmB absorbance detected at 412 nm using the diode array detector. […]

A short description of series [3]: Critical aggregation concentration (CAC) of AmB. It is filed as physicochemical.
The next series deals with 4% BSA (Bos taurus, UniProt P02769). Briefly: Electronic absorption kinetics at 412 nm upon dilution in serum albumin. Type of series: physicochemical, bovine. Conditions: AmB 10 μg/mL. Here is the method:
Electronic absorption kinetics. Stock solutions containing AmB (micelle encapsulated or dissolved in DMSO) were added to 4% BSA, buffered to pH 7.0 with 10 mM HEPES. The final concentration of AmB was 10 μg/mL. For AmB dissolved in DMSO, the final DMSO content was less than 0.2%. Absorbance spectra were recorded from 300 to 450 nm at room temperature by using the Cary 50 spectrophotometer (Varian, Palo Alto, Calif.). Sequential spectra were acquired at 15 second intervals for the first 5 min; and at 1 minute intervals for an additional 40 minutes. A scan for baseline absorbance was taken before addition of AmB and was subtracted from each spectrum. The change in absorbance at 412 nm, […] was fit to a first-order process of the form A∞−At=a.e^−k.t using non-linear regression (SigmaPlot v.9.0).

[4] abbreviates: >95% inhibition, 24 h, 35° C., read-out: Minimum Inhibitory Concentrations (MIC).
The mark [5] stands for this setting: median-effect fit, read-out: Dm × 10^3 (concentration for 50% growth inhibition).

Chain of 4% BSA (P02769 25-607): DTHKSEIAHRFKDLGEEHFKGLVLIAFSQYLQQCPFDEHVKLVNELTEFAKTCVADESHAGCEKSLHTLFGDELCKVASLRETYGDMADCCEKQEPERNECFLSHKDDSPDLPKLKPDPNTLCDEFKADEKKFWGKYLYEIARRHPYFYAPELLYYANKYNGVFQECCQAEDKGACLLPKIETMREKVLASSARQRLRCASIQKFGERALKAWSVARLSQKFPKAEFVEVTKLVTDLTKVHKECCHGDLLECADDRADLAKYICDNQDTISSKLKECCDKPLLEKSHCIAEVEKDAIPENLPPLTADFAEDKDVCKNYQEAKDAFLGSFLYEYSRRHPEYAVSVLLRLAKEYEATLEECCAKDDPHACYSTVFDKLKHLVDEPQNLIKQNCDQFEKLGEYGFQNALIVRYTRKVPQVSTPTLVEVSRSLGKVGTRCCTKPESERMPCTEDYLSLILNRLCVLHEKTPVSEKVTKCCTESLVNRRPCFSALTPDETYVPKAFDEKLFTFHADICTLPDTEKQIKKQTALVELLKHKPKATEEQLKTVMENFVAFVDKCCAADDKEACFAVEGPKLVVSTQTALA

Take `Nc1nc(=O)[nH]cc1F` [5-FC, 5-fluorocytosine]: the MIC was 0.1 µg/mL in series [1] (both isolates, 24 h); 0.1 µg/mL with C. albicans 98-234 (setting [4]); 0.1 µg/mL in the series with C. albicans 98-17 (setting [4]). Also, the IC50 is 0.04 to 0.07 µg/mL in series [1] (range over isolates, read-out: Dm); 39.8 ± 0.1 µg/mL in the series with C. albicans 98-234 (setting [5]); 70.7 ± 7.3 µg/mL in the series on C. albicans 98-17 (setting [5]).

For `C[C@@H]1[C@H](O)[C@@H](C)/C=C/C=C/C=C/C=C/C=C/C=C/C=C/[C@H](O[C@@H]2O[C@H](C)[C@@H](O)[C@H](N)[C@@H]2O)C[C@@H]2O[C@](O)(C[C@@H](O)C[C@@H](O)[C@H](O)CC[C@@H](O)C[C@@H](O)CC(=O)O[C@H]1C)C[C@H](O)[C@H]2C(=O)O` [Free AmB, Amphotericin B], the “100 · k (AmB release, first-order fit)” value in series [2] (5 mM HEPES) was 1.01 ± 0.10 h⁻¹; in series [2] (4% BSA), 3.72 ± 0.04 h⁻¹. Moreover, the figures for the CAC in series [3] (in 4% BSA) and in series [3] (in HEPES) were 10 µM and 1 μMA, respectively. Also, the “A∞ (absorbance at 412 nm)” value on 4% BSA came out at 0.77. On 4% BSA (room temperature), the “100 k (absorbance change at 412 nm)” value was found to be 3.25 ± 0.23 min⁻¹.
